Source: a melting point compilation (Tetko et al.; mined from patent text by program, amines drawn as free bases though some values may be those of a salt)

| melting point | SMILES |
| --- | --- |
| 140 to 141 °C | COc1cc(-c2c(Cl)c(CN3CCCC3=O)nc3sc4c(c23)CCN(Cc2ccccc2)C4)ccc1OC(C)C |
| 158 to 159 °C | CCOC(=NC(=O)c1ccc(Cl)cc1Cl)N1Cc2ccccc2-c2ccccc2C1 |
| 71 to 73 °C | C[C@H](C(=O)c1ccccc1F)n1ccn(-c2ccc(OCC(F)(F)C(F)F)cc2)c1=O |
| 117 to 123 °C | CC(C)[C@]1(CCc2ccsc2)CC(O)=CC(=O)O1 |
| 94 to 96 °C | Clc1ccc(CN2CC=C(/C=C/c3cccc(Cl)c3)CC2)cc1 |
| 114 to 115 °C | Cc1oc(-c2ccccc2)nc1COc1ccc(C=CC=O)cc1 |
| 211 to 213 °C | CC(C)(C)OC(=O)CN1CC(c2cccc3ccccc23)SCC(N2C(=O)c3ccccc3C2=O)C1=O (centres undefined) |
| 156 to 158 °C | Cc1nc(-n2cnn(Cc3ccc(C(F)(F)F)cc3)c2=O)sc1C(=O)NCc1cccnc1 |
| 275 to 277 °C | S=C1Nc2ccccc2Cn2nnnc21 |
| 220 to 222 °C | CCOC(=O)c1cn(-c2nc[nH]n2)cn1 |
| 108 °C | C[C@@H](S[C@H]1CO[C@H](c2ccc(C(=O)Nc3nccs3)cc2)OC1)[C@](O)(Cn1cncn1)c1ccc(F)cc1F |
| 138 to 139 °C | COc1ccc(-c2cc(=O)n(Cc3cc(OC)c(OC)c(OC)c3)nc2-c2ccc(OC)cc2)cc1 |
| 260 to 262 °C | CC(C)(C)Nc1c(NCc2ccccc2F)c(=O)c1=O |
| 110 to 125 °C | COC(=O)c1ccc(CCC(C=Cc2ccc(O)c(OC)c2)=NO)o1 |
| 295 to 297 °C | CC(C)(C)n1nc2c(=O)[nH]c3ccccc3c2c1CO |
| 171 °C | Cc1ccc2c(c1)c(CCNC(=O)c1ccccc1)c1n2C(=O)CCC1 |
| 86 to 88 °C | C=CC(=O)N(CCCCCC)C[C@H](O)[C@@H](O)[C@H](O)[C@H](O)CO |
| 170 °C | CC(C)Oc1ccc2ccc(N)nc2n1 |
| 180 to 182 °C | CC(O)c1ccc(F)c(-c2ccc3nc(-c4ccc(Cl)cc4)cn3c2)c1 (centres undefined) |
| 70 to 71 °C | CSc1ccc(C=CC(N)=NO)s1 |
| 92 to 94 °C | N#CCC1CC(=O)N(c2ccc(Cl)cc2)C1 (centres undefined) |
| 115 to 117 °C | CCc1nc2c(cnn2CC)c(NC2CCOCC2)c1CNC(=O)c1cccc(C(=O)NCc2ccc(Cl)c(Br)c2)c1 |
| 128 °C | OC1CSC(Oc2cccnc2-c2ccoc2)C(O)C1O (centres undefined) |

| melting point | SMILES |
| --- | --- |
| 194 to 196 °C | CN(C)c1ccc(CNC(=O)[C@@H](Cc2ccccc2)NC(=O)CCC(=O)O)cc1 |
| 168 to 170 °C | CSc1ccc2c(SCc3ccc(N(C)C)cc3)ccnc2c1 |
| 234 to 236 °C | CSc1cn(C)c2cc(-c3cccc(Cl)c3)sc2c1=O |
| 132 to 133 °C | CCC(C)C1C(=O)NC(=S)N1C(C)=O (centres undefined) |
| 162 to 164 °C | COc1ccccc1N1CCN(CCC2C(=O)NCN3CCC4SC=C(C4=O)C(=O)C23)CC1 (centres undefined) |
| 286 to 288 °C | C[Si](C)(C)C#Cc1c2ccccc2c2ccc3c(C#C[Si](C)(C)C)c4ccccc4c4ccc1c2c34 |
| 182 to 184 °C | CC1=NNS(=O)(=O)c2sc(Cl)cc21 |
| 155 to 156 °C | O=C(O)Cc1ccc(Cc2ccccc2CC(=O)O)cc1 |
| 63.5 to 64.5 °C | COC(=O)C(c1ccccc1CCl)C(OC)OC (centres undefined) |
| 100 to 101 °C | CON1C(=O)[C@H](Cc2c[nH]c3ccccc23)NC(=O)[C@@H]1CC(C)C |
| 101 to 102 °C | CN(C(=O)OC(C)(C)C)c1cc(Oc2cccnc2)ccc1N |
| 109 to 110 °C | COC(=O)C(NC(=S)n1nc(Oc2ncc(C(F)(F)F)cc2Cl)cc1C)C(C)C (centres undefined) |
| 174 to 176 °C | COc1ccc(C(=O)NCC(=O)N2c3ccccc3N(Cc3ccccc3)C(=O)[C@H]3CCC[C@H]32)cc1OC (relative stereo) |
| > 330 °C | O=C(O)c1cccc(-c2cc3ccc(Cl)cc3[nH]c2=O)c1 |
| 174 to 175 °C | Cc1c(C(N)=O)sc2cncc(Oc3ccc(Cl)cc3)c12 |
| 93 to 95 °C | Cc1cn(C(C)C(=O)N(C)C)nc1-c1ccco1 (centres undefined) |
| 184 °C | Cc1csc2ccc3[nH]c4c(c3c12)CN(C(=O)OCCCN(C)C)CC4 |
| 203 to 206 °C | CC1CN(c2cc3c(cc2F)c(=O)c(C(=O)O)cn3C2CC2)CCN1CCC#N (centres undefined) |
| 92 to 94 °C | COc1ccc(C(O)c2ccccn2)cc1OC (centres undefined) |
| 198 °C | CN(O)C(=O)Nc1ccc(S(C)(=O)=O)cc1 |
| 192 to 193 °C | Cc1nnc(-c2ccc3occ(-c4cnn(Cc5ccccc5C#N)c4)c3c2)o1 |
| 184 °C | CC1CCNC(=C[N+](=O)[O-])N1c1ccc(Cl)nc1 (centres undefined) |
| 130 to 132 °C | OC1(CNc2c(Br)cnc3ccccc23)CCCCC1 |

| melting point | SMILES |
| --- | --- |
| 125 to 130 °C | Cc1c(-c2ccc(O)cc2)n(Cc2ccc(OCCN3C[C@@H]4CC[C@H]3C4)cc2)c2ccc(O)cc12 |
| 69 to 70 °C | CC(=O)N1CCC(Oc2ccccc2N2CCCCC2)CC1 |
| 146 to 148 °C | O=C1c2cccc(O)c2N=CC2CCCN12 (centres undefined) |
| 117 to 118 °C | CCC(C)(CCCCCCC(C)(CC)C(=O)O)C(=O)O (centres undefined) |
| 94 to 95 °C | C=Cc1nc(-c2ccco2)c2ncn(Cc3ccc(OC)cc3)c2n1 |
| 176 to 177 °C | CC12CCC(O)CC1=CCC1C2CCC2(C)C(n3nccn3)=CCC12 (centres undefined) |
| 60 to 63 °C | CC(C)(C)OC(=O)N1CCC(CCOS(C)(=O)=O)CC1 |
| 175 to 176 °C | Cc1nc(N2CCCCC2=O)sc1C(=O)NCc1ccccc1 |
| 203 to 204 °C | CCn1c(=O)ccc2cnc(Nc3ccccc3)nc21 |
| 105 to 107 °C | OCC1OC(n2cnc3c(NNC4CCSc5ccccc54)ncnc32)C(O)C1O (centres undefined) |
| 150 to 160 °C | O=c1[nH]nc(-c2ccc(NN=C(c3ccc(O)cc3)c3ccc(O)cc3O)cc2)c2ccccc12 |
| 125 to 126 °C | O=Cc1cc([N+](=O)[O-])ccc1Oc1ccc(F)cc1 |
| 240 to 242 °C | CNC(=O)OCc1cnc2c(NC(=O)c3c(Cl)cccc3Cl)cccc2c1-n1ccnc1 |
| 145 to 147 °C | O=C(Nc1nc(Cl)nc(Cl)n1)NS(=O)(=O)c1cccc2cccnc12 |
| 106 to 108 °C | O=C(OCc1ccccc1)c1ncoc1CCNC(=O)[C@H](O)Cc1ccccc1 |
| 154 to 155 °C | CSc1ccc(-c2nn(Cc3ccc(Cl)cc3Cl)c(=O)cc2-c2ccc(Cl)cc2)cc1 |
| 130 to 132 °C | CNC(=S)NCCCCc1nccs1 |
| 153 to 155 °C | O=C(O)COc1ccc(SCc2ccc(OCc3ccc(CF)cc3)cc2)c2c1CCC2 |
| 141 to 143 °C | COc1cc(OC)cc(N2CCN(C(=S)Nc3nc4ccccc4nc3OC)CC2)c1 |
| 177 to 178 °C | CC(C)(C)n1c(=O)n(-c2ccnc(N)c2)c2ccccc21 |
| 132 to 136 °C | CC(C)(C)OC(=O)N1CCC(=CS(=O)(=O)NC(=O)c2cc(C(F)(F)F)cc(C(F)(F)F)c2)CC1 |
| 154 to 155 °C | CC(=O)Nc1cc(Cl)c(C)cc1Br |
| 110 to 115 °C | COC(=O)c1cc([N+](=O)[O-])c(O)c([N+](=O)[O-])c1 |

| melting point | SMILES |
| --- | --- |
| 217 to 218 °C | COc1ccc(-n2c(-c3cc(-c4ccc(Cl)cc4)c(N4CCOCC4)s3)nc3ccccc3c2=O)cc1 |
| 262 to 264 °C | O=C1NC(c2ccccc2)C2=C1N=C1N=CNN1C2 (centres undefined) |
| 120 to 121 °C | C=Cc1ccc(CC(N)=O)nc1 |
| 191 to 193 °C | Cc1[nH]cnc1CCc1ccc2nc(N)sc2c1 |
| 235 to 236 °C | Nc1c(-c2cccnc2)nsc1C(=O)O |
| 107 to 110 °C | CC(C)(C)OC(=O)N1CC(CC(=O)CC(=O)OCc2ccc([N+](=O)[O-])cc2)C2NC(=O)C21 (centres undefined) |
| 214 to 217 °C | CC(C)n1nc(-c2nc(N)cnc2-c2ccccc2)ccc1=O |
| 260 to 262 °C | CC[C@H](NC(=O)OC(C)(C)C)c1nc2c(C(F)(F)F)cccc2c(O)c1C(=O)Nc1nccs1 |
| 207 to 209 °C | COc1ccc(-c2ccc(C(C)C)cc2)c(C(=O)Nc2ccc(N3CCN(CC(N)=O)CC3)cc2)c1 |
| 140 to 141 °C | O=C(O)CCC(=O)c1ccc(C2CCCCC2)cc1 |
| 212 to 214 °C | COc1cn(-c2ccc(-n3cc(F)c(F)c3)cc2F)nc(-c2ccnn2-c2ccccc2)c1=O |
| 189 to 191 °C | CC(=O)c1ccc(NS(C)(=O)=O)c(Oc2ccccc2S(C)(=O)=O)c1 |
| 93 to 95 °C | Cn1cc(CS(C)=O)c(=O)c2ccccc21 (centres undefined) |
| 58 to 59 °C | CCCCCCCCCCCCCCCCCCOCCSCCO |
| 143 to 146 °C | Cc1oc(C(N)=O)c(C)c1-c1nc2ccc(C(=O)c3ccccc3)cc2[nH]1 |
| 70 to 74 °C | COc1cc(CC(=O)N[C@@H](COC(=O)C(C)(C)C)Cc2ccccc2)ccc1OCCN |
| 103 to 111 °C | CCOC(=O)[C@H](Cc1cccc(OCc2ccc3ccccc3c2)c1)NC(=O)C(F)(F)F |
| 227 °C | O=C(CCCCC(=O)NC1CCc2ccccc21)NC1CCc2ccccc21 (centres undefined) |
| 126 to 128 °C | CCCCCS(=O)(=O)NC(=O)/C=C/c1ccc(OCC2CCCO2)cc1Oc1ncc(C(F)(F)F)cc1Cl (centres undefined) |
| 151 °C | CN1C[C@@H]2c3ccccc3Oc3ccc(Cl)cc3[C@H]2C1=O (relative stereo) |
| 168 °C | CCOC(=O)C(CCc1ccccc1)NC1CSC(c2cccs2)CN(CC(=O)O)C1=O (centres undefined) |
| 127 to 129 °C | COC(=O)C(=O)c1ccc(OCCOc2ccc3ccccc3c2)c([N+](=O)[O-])c1 |
| 102 to 103 °C | NNc1cc(Nc2ccc(F)c(C(F)(F)F)c2)nc(Cl)n1 |

| SMILES | melting point |
| --- | --- |
| CCN(CC)C(=O)Nc1ccc2c(c1Cl)C(c1ccccc1F)=NCC(=O)N2C | 190 to 191 °C |
| COc1ccc2c(c1)COc1ccc(OCc3ccc4ccc(Cl)cc4n3)cc1C2SCCC(=O)O (centres undefined) | 177 to 179 °C |
| CCC(C)(CC)C(=O)N[C@H]1C[C@@H]2c3cccc4[nH]c(C)c(c34)C[C@H]2N(C)C1 | 191 to 192 °C |
| NS(=O)(=O)NC(c1ccccc1)P(=O)(Oc1ccccc1)Oc1ccccc1 (centres undefined) | 171 to 174 °C |
| CCc1c(C(=O)C(N)=O)c2c(N)cccc2n1Cc1ccccc1 | 140 to 144 °C |
| Cn1c(=O)c2c(ncn2CCN2CC=C(c3c[nH]c4ccccc34)CC2)n(C)c1=O | 196 °C |
| CC(C)C(=O)N[C@H]1N=C(c2ccccc2)c2ccccc2N(C)C1=O | 87 to 107 °C |
